IC50 data for 23 compounds are collected here from patent US11718600B2, “1,2,3-triazole inhibitors of P97 AAA ATPase activity” (University of Pittsburgh—Of the Commonwealth System of …, priority 2018, dated 2023).

Chain of p97 (P55072 whole entry): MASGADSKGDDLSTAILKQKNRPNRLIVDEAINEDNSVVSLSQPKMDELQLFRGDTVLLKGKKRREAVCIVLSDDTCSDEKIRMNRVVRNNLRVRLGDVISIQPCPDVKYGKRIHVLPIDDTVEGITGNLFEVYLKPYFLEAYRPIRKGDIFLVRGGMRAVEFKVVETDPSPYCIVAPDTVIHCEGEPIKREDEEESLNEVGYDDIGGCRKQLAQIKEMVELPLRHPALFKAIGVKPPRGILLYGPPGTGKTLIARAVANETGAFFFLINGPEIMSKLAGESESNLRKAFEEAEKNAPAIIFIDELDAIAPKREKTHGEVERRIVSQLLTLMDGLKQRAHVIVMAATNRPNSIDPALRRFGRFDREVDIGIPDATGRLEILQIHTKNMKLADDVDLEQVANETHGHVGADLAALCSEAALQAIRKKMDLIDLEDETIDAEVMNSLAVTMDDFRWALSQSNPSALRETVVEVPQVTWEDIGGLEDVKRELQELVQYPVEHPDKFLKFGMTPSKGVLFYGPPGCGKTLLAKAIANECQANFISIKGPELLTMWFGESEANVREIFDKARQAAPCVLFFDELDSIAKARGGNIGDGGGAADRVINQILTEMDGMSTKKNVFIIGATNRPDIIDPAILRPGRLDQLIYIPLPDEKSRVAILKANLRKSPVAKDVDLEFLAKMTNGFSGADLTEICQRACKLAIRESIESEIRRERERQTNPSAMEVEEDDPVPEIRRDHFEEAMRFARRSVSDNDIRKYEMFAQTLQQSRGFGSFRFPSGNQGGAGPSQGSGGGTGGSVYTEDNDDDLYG

The experiment deals with p97 (Homo sapiens, UniProt P55072). The experiment in a line: BioMol Green ATPase assay. In kind it is biochemical. Conditions: 200 μM ATP. An excerpt:
Biomol Green (Enzo) is a […] from a biochemical reaction. Because of its high sensitivity, the assay is suitable for monitoring enzyme activities at very early substrate conversions requiring very low amount of enzymes.
The assay procedure used may be the same as in Zhang et al., “Altered cofactor regulation with disease-associated p97/VCP mutations,” Proc. Natl. Acad. Sci. USA, 112(14), E1705-E1714 (2015).
The BioMol Green ATPase assay procedure used was that which was disclosed in Zhang, et al., “Altered cofactor regulation with disease-associated p97/VCP mutations,” Proc. Natl. Acad. Sci. USA, 112(14), E1705-E1714 (2015). Compounds also show activity in a cell-based assay such as the ubiquitin assay.
Consider `CC(C)(C)OC(=O)N1CCN(C(=O)Cn2ncc(-c3cc(F)c(OCc4nnc(SC5C=CCCC5)n4-c4cccnc4)cc3F)n2)CC1` (centres unmarked) [Entry 1], for which the IC50 (usually the concentration needed to halve the response being measured) is under 50 nM. Take `CC(C)(C)OC(=O)N1CCN(C(=O)Cn2cc(-c3cc(F)c(OCc4nnc(SC5C=CCCC5)n4-c4cccnc4)cc3F)nn2)CC1` (centres unmarked) [Entry 2]: the IC50 is under 1000 nM. The compound `[2H]C1([2H])C([2H])([2H])C([2H])([2H])C([2H])(Sc2nnc(COc3cc(F)c(-c4cnn(CC(=O)N5CCN(C(=O)OC(C)(C)C)CC5)n4)cc3F)n2-c2cccnc2)C1([2H])[2H]` [Entry 3] showed an IC50 of under 50 nM.

The compound `[2H]C1([2H])C([2H])([2H])C([2H])([2H])C([2H])(Sc2nnc(COc3cc(F)c(-c4cn(CC(=O)N5CCN(C(=O)OC(C)(C)C)CC5)nn4)cc3F)n2-c2cccnc2)C1([2H])[2H]` [Entry 4] registered an IC50 of under 1000 nM. The same measure for `[2H]C1([2H])C([2H])([2H])C([2H])([2H])C([2H])(Sc2nnc(COc3cc(F)c(-c4cnn(CC(=O)N5CCNCC5)n4)cc3F)n2-c2cccnc2)C1([2H])[2H]` [Entry 5]: under 50 nM. In turn, `[2H]C1([2H])C([2H])([2H])C([2H])([2H])C([2H])(Sc2nnc(COc3cc(F)c(-c4cn(CC(=O)N5CCNCC5)nn4)cc3F)n2-c2cccnc2)C1([2H])[2H]` [Entry 6] had an IC50 of under 1000 nM. In the case of `CN1CCN(C(=O)Cn2ncc(-c3cc(F)c(OCc4nnc(SC5C=CCCC5)n4-c4cccnc4)cc3F)n2)CC1` (centres unmarked) [Entry 7], the IC50 was under 50 nM. The value for `CC(C)(C)OC(=O)N1CCN(CCn2ncc(-c3cc(F)c(OCc4nnc(SC5C=CCCC5)n4-c4cccnc4)cc3F)n2)CC1` (centres unmarked) [Entry 8] was under 100 nM; that for `OCCn1ncc(-c2cc(F)c(OCc3nnc(SC4C=CCCC4)n3-c3cccnc3)cc2F)n1` (centres unmarked) [Entry 9] was under 50 nM; that for `CN1CCC(NC(=O)OCCn2ncc(-c3cc(F)c(OCc4nnc(SC5C=CCCC5)n4-c4cccnc4)cc3F)n2)CC1` (centres unmarked) [Entry 10] was under 50 nM. On to `CNC(=O)OCCn1ncc(-c2cc(F)c(OCc3nnc(S[C@H]4C=CCCC4)n3-c3cccnc3)cc2F)n1` [Entry 11], for which the IC50 was under 50 nM. The same measure for `CN1CCN(C(=O)OCCn2ncc(-c3cc(F)c(OCc4nnc(S[C@H]5C=CCCC5)n4-c4cccnc4)cc3F)n2)CC1` [Entry 12]: under 100 nM. The value for `CN1CCN(C(=O)Cn2ncc(-c3cc(F)c(OCc4nnc(S[C@H]5C=CCCC5)n4-c4cccnc4)cc3F)n2)CC1` [Entry 13] was under 50 nM.

`Fc1cc(-c2cnn(CCOCc3ccccc3)n2)c(F)cc1OCc1nnc(SC2C=CCCC2)n1-c1cccnc1` (centres unmarked) [Entry 14] displayed an IC50 of under 1000 nM. The value for `OCCn1ncc(-c2cc(F)c(OCc3nnc(S[C@H]4C=CCCC4)n3-c3cccnc3)cc2F)n1` [Entry 15] was under 50 nM.

Turning to `CC(C)(C)OC(=O)N1CCN(C(=O)Cn2ncc(-c3cc(F)c(OCc4nnc(S[C@@H]5C=CCCC5)n4-c4cccnc4)cc3F)n2)CC1` [Entry 16], the IC50 is under 1000 nM.

The compound `CC(C)(C)OC(=O)N1CCN(C(=O)Cn2ncc(-c3cc(F)c(OCc4nnc(S[C@H]5C=CCCC5)n4-c4cccnc4)cc3F)n2)CC1` [Entry 17] displayed a concentration for half-maximal inhibition (IC50) of under 50 nM.

In the case of `OCCn1cc(-c2cc(F)c(OCc3nnc(SC4C=CCCC4)n3-c3cccnc3)cc2F)nn1` (centres unmarked) [Entry 18], the IC50 was under 1000 nM. The same measure for `CN1CCC(NC(=O)OCCn2cc(-c3cc(F)c(OCc4nnc(SC5C=CCCC5)n4-c4cccnc4)cc3F)nn2)CC1` (centres unmarked) [Entry 19]: under 1000 nM.

Take `COC(=O)Cn1ncc(-c2cc(F)c(OCc3nnc(SC4C=CCCC4)n3-c3cccnc3)cc2F)n1` (centres unmarked) [Entry 20]: the IC50 is under 50 nM. The value for `O=C(O)Cn1ncc(-c2cc(F)c(OCc3nnc(SC4C=CCCC4)n3-c3cccnc3)cc2F)n1` (centres unmarked) [Entry 21] was under 100 nM; that for `CN1CCC(NC(=O)Cn2ncc(-c3cc(F)c(OCc4nnc(SC5C=CCCC5)n4-c4cccnc4)cc3F)n2)CC1` (centres unmarked) [Entry 22] was under 50 nM. The same measure for `COC(=O)Cn1ncc(-c2cc(F)c(OCc3nnc(S[C@H]4C=CCCC4)n3-c3cccnc3)cc2F)n1` [Entry 23]: under 50 nM.
